Experiment [1] has as its target T1, hcGAS (Homo sapiens, UniProt Q8N884). The experiment is described as follows: hcGAS Kinase-Glo assay (ATP depletion). The format is biochemical. The following applies: 40 nM hcGAS, 100 μM ATP, 100 μM GTP, 25 nM dsDNA, 3 h incubation. In a few lines: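 Human cGAS activity measured indirectly as ATP depletion by Kinase-Glo luminescence, following the Lama et al. method with modified conditions. Output is IC50, binned into potency categories.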
(Kinase-Glo measures the ATP left after a reaction by luminescence.)

Experiment [2] deals with T1, hcGAS. The experiment is described as follows: hcGAS LCMS assay (direct measurement of cGAMP production). The conditions noted are these: 0.5 nM hcGAS, 100 μM ATP, 100 μM GTP, 25 nM dsDNA, 4 h incubation. The format is biochemical. Summed up:
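Direct LC/MS readout of cGAMP formed: 4-h enzyme–substrate incubation with compound, stopped by acetonitrile/water quench carrying isotope-labelled cGAMP (0.15 mM) as standard. Potency reported as IC50 ranges.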

pIC50: −log10 of the molar value.

The values below come from patent US20240270740A1, “INHIBITORS OF CYCLIC GMP-AMP SYNTHASE AND USES THEREOF” (Ventus Therapeutics U.S., Inc., priority 2022, published 2024).

As usually defined, the pIC50 is the IC50 on a negative log10 scale, so that one unit is a factor of ten. A lower pIC50 goes with a high IC50.

T1 sequence (Q8N884 whole entry): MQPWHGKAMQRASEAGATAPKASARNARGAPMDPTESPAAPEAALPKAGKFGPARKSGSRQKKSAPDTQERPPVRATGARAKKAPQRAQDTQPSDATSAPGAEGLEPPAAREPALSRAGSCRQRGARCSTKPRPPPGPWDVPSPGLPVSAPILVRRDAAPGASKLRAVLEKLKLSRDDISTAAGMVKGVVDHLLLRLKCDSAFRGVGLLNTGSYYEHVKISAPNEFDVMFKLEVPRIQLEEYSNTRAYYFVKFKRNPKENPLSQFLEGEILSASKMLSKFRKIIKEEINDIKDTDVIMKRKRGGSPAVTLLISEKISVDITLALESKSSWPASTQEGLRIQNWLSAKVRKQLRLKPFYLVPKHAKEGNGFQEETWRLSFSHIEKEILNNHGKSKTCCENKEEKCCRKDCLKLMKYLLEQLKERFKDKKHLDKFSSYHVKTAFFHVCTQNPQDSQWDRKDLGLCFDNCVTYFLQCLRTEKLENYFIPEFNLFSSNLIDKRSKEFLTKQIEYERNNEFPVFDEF

Turning to `COc1c(N[C@H]2CCC[C@H]2O)cc(C(=O)Nc2nnc(-c3c(Cl)ccn3C)s2)oc1=O` (racemic) [Rac-188, N-(5-(3-chloro-1-methyl-1H-pyrrol-2-yl)-1,3,4-thiadiazol-2-yl)-4-(((1S,2R)-2-hydroxycyclopentyl)amino)-3-methoxy-2-oxo-2H-pyran-6-carboxamide], the pIC50 was over 8.00 in experiment [1] and over 8.30 in experiment [2].
In the same order, the values of `COc1c(NCCS(C)(=O)=O)cc(C(=O)Nc2nnc(-n3nccc3C)s2)oc1=O` [Compound 183] are 7.00 to 7.52 and 7.70 to 8.30.
In the same order, the values of `COc1c(N[C@H]2CC[C@H](OC)CC2)cc(C(=O)Nc2nnc(-n3nccc3C)s2)oc1=O` [Compound 11, 3-methoxy-4-(((1,4-trans)-4-methoxycyclohexyl)amino)-N-(5-(5-methyl-1H-pyrazol-1-yl)-1,3,4-thiadiazol-2-yl)-2-oxo-2H-pyran-6-carboxamide] are 7.52 to 8.00 and 7.22 to 7.70.
In the same order, the values of `COc1c(N[C@@H]2CCC[C@@H]2O)cc(C(=O)Nc2nnc(-n3nccc3C)s2)oc1=O` (racemic) [Rac-23, 4-(((cis)-2-hydroxycyclopentyl)amino)-3-methoxy-N-(5-(5-methyl-1H-pyrazol-1-yl)-1,3,4-thiadiazol-2-yl)-2-oxo-2H-pyran-6-carboxamide] are 7.52 to 8.00 and over 8.30.
In the case of `COc1c(NC[C@@H](C)OC)cc(C(=O)Nc2nnc(-n3nccc3C)s2)oc1=O` [Compound 119, (R)-3-methoxy-4-((2-methoxypropyl)amino)-N-(5-(5-methyl-1H-pyrazol-1-yl)-1,3,4-thiadiazol-2-yl)-2-oxo-2H-pyran-6-carboxamide], the pIC50 is 7.52 to 8.00 in experiment [1] and 7.70 to 8.30 in experiment [2].
In the same order, the values of `COc1c(N[C@H]2CC[C@@H](O)CC2)cc(C(=O)Nc2nnc(-n3nccc3C)s2)oc1=O` [Compound 220] are 7.52 to 8.00 and 7.70 to 8.30.
For the compound `COc1c(NC(C)C)cc(C(=O)Nc2nnc(-n3nccc3C)s2)oc1=O` [Compound 179, 4-(isopropylamino)-5-methoxy-N-[5-(5-methylpyrazol-1-yl)-1,3,4-thiadiazol-2-yl]-6-oxopyran-2-carboxamide], the figures for the pIC50 in experiment [1] and in experiment [2] were 7.00 to 7.52 and 7.70 to 8.30, respectively.
Take “3-methoxy-4-(((1R,2S)-2-methoxycyclobutyl)amino)-N-(5-(5-methyl-1H-pyrazol-1-yl)-1,3,4-thiadiazol-2-yl)-2-oxo-2H-pyran-6-carboxamide [Rac-67]”: the negative logarithm of the IC50 (pIC50) was 7.52 to 8.00 in experiment [1] and 7.70 to 8.30 in experiment [2].
In the same order, the values of `COc1c(N2C[C@H](OC)[C@@H](OC)C2)cc(C(=O)Nc2nnc(-n3nccc3C)s2)oc1=O` (racemic) [Rac-92, 4-((3S,4S)-3,4-dimethoxypyrrolidin-1-yl)-3-methoxy-N-(5-(5-methyl-1H-pyrazol-1-yl)-1,3,4-thiadiazol-2-yl)-2-oxo-2H-pyran-6-carboxamide] are 7.52 to 8.00 and 7.70 to 8.30.
